Experimental data as given in US20100324285A1, “ANTIINFLAMMATORY AGENT COMPRISING 2-AMINOPHENOL OR DERIVATIVE THEREOF AS ACTIVE INGREDIENT” (priority 2006, published 2010).

Assays:
[1] = test system: RAW264.7 cells; experiment: NO production by macrophage RAW264.7, Griess method; assay type: cell-based, mouse; details: LPS + IFN-γ, 2 days, relative level versus control
From the text: As macrophage cells, RAW264.7 cell strain from mouse or macrophage cells obtained from laboratory animals such as mouse can be used. The amount of produced NO can be measured by conventional Griess method. […] RAW264.7 cells, a murine macrophage cell strain, were suspended in PRMI1640 medium supplied with 10% (v/v) fetal calf serum (hereinafter abbreviated as “FCS”) to give a cell suspension with a cell concentration of 1×10^6 cells/ml. […] The experimental system without the test samples described above was set as control. […] NO production, PGE2 production and macrophage growth are indicated as relative levels versus controls.

[2] = test system: RAW264.7 cells; experiment: PGE2 production by macrophage RAW264.7, PGE2-EIA kit; assay type: cell-based, mouse; details: LPS + IFN-γ, 2 days, relative level versus control
From the text: RAW264.7 cells, a murine macrophage cell strain, were suspended in PRMI1640 medium supplied with 10% (v/v) fetal calf serum (hereinafter abbreviated as “FCS”) to give a cell suspension with a cell concentration of 1×10^6 cells/ml. […] The experimental system without the test samples described above was set as control. […] NO production, PGE2 production and macrophage growth are indicated as relative levels versus controls.

[3] = test system: iNOS; experiment: Amount of iNOS in cell extracts, western blotting; assay type: cell-based, mouse; details: RAW264.7 cell extracts of Experiment 2, anti-iNOS antibody
Experimental: In addition, the amount of iNOS in the cell extracts of this experiment was measured by western blotting analysis using an anti-iNOS antibody.

[4] = test system: β-hexosaminidase; experiment: Direct inhibition of β-hexosaminidase activity of whole granule extract; assay type: biochemical, rat; details: 40 μM added
Experimental: Separately, the whole granule extract described above was injected into a 96-well microplate by 50 μl per well. Each well was admixed with 50 μl of 0.1 M citrate buffer (pH 4.5) containing 1 mM PNAC and warmed at 37° C. for one hour. The reaction was stopped by adding 50 μl of 0.1 M sodium carbonate (pH 10.5), measuring the absorbance at 405 to 650 nm. As control, the same measurement as described above was carried out using BSA-containing Siraganian buffer alone. […] The resultant data was obtained by averaging the measurement values from 3 wells each of the test sample or the whole granule extract.

[5] = test system: NHDF, normal fibroblast from human fetus; experiment: Collagen production by NHDF, Sircol Collagen Assay; assay type: cell-based; details: 6 days; for Collagen production (μg/well), AA-2G addition: 50 μM AA-2G; for Collagen production (μg/well), AA-2G free: no AA-2G
Experimental: NDHF cells (commercialized by Kurabo Industries Ltd. Osaka, Japan, catalog No. “KF-4001”) were suspended in D-MEM supplemented with 10 (v/v) % FCS to give a concentration of 5×10^5 cells/ml, and the suspension was sown in 96-well microplate by 50 μl per well. […] After cultured at 37° C. for a day, the supernatant was removed and any one of the samples and D-MEM medium supplemented with 10 (v/v) % FCS containing 100 μM AA-2G (a final concentration of 50 μM) or D-MEM medium supplemented with 10 (v/v) % FCS not containing AA-2G were added by 100 μl per well, and cultured at 37° C. for 3 days in 5 (v/v) % CO2 atmosphere. […] After the culture supernatant was removed, 1 M acetate solution containing 1 mg/ml of pepsin (commercialized by SIGMA, Inc.) was added by 50 μl per well and the plate was shaken at room temperature for 4 hours with a plate mixer for pepsin digestion. The digest was collected in a 1.5 ml-tube by pipetting, admixed with 200 μl per tube of Dye Reagent of Sircol Collagen Assay Kit (commercialized by Biocolor Ltd.), and allowed to react at room temperature for 30 minutes by inversely mixing. The supernatant of the reaction mixture was completely removed bycentrifugation (4° C., 15,000 rpm, 10 minutes), […] dissolved in 50 μl of 1 N NaOH, the resulting supernatant was measured for its absorbance at 560 nm to 650 nm. […] According to the standard curve, the amount of collagen in the pepsin digest of the cells was calculated.

[6] = test system: NHDF, normal fibroblast from human fetus; experiment: Cytopathic test, alamar Blue; assay type: cell-based; details: 6 days; for Cell survival rate (%), AA-2G free: no AA-2G; for Cell survival rate (%), AA-2G addition: with AA-2G
Experimental: Cells were cultured with test samples and D-MEM medium supplemented with 10 (v/v) % FCS with or without AA-2G for 6 days by the same method as above, and the supernatant was removed, washed with phosphate buffered saline (PBS(−)), and admixed with alamar Blue (commercialized by TREK Diagnostic Systems, Inc.), which had been diluted by 10-fold with D-MEM medium in a volume of 200 μl per well. After culturing at 37° C. for 90 minutes, the fluorescence intensity (exciting light: 544 nm, fluorescence: 590 nm) was measured. The cell survival rate (%) was calculated by dividing the fluorescence intensity of a well with a test sample by the fluorescence intensity of a well with a control sample, and multiplying by 100.

Structure (SMILES): Nc1cc2nc3ccccc3oc-2cc1=O [2-Aminophenoxazine-3-one, 2-aminophenoxazine-3-one]
- NO production (%) ([1]; 0.16 μM): 85%
- NO production (%) ([1]; 0.31 μM): 78%
- NO production (%) ([1]; 0.63 μM): 70%
- NO production (%) ([1]; 1.3 μM): 54%
- NO production (%) ([1]; 2.5 μM): 32%
- NO production (%) ([1]; 5.0 μM): 19%
- NO production (%) ([1]; 10 μM): 14%
- PGE2 production (%) ([2]; 0.16 μM): 76%
- PGE2 production (%) ([2]; 0.31 μM): 45%
- PGE2 production (%) ([2]; 0.63 μM): 13%
- PGE2 production (%) ([2]; 1.3 μM): 6%
- PGE2 production (%) ([2]; 2.5 μM): 1%
- PGE2 production (%) ([2]; 5.0 μM): 3%
- PGE2 production (%) ([2]; 10 μM): 2%
- amount of iNOS [3]: decreased depending on the 2-aminophenoxazine-3-one concentration
- inhibition rate of β-hexosaminidase activity [4]: −9.9%
- Collagen production (μg/well), AA-2G addition ([5]; QA 0.125 μM): 1.32 ± 0.45 μg/well
- Collagen production (μg/well), AA-2G free ([5]; QA 0.125 μM): 0.66 ± 0.05 μg/well
- Collagen production (μg/well), AA-2G addition ([5]; QA 0.25 μM): 1.64 ± 0.21 μg/well
- Collagen production (μg/well), AA-2G free ([5]; QA 0.25 μM): 0.64 ± 0.06 μg/well
- Collagen production (μg/well), AA-2G addition ([5]; QA 0.5 μM): 1.57 ± 0.18 μg/well
- Collagen production (μg/well), AA-2G free ([5]; QA 0.5 μM): 0.63 ± 0.07 μg/well
- Collagen production (μg/well), AA-2G addition ([5]; QA 1.0 μM): 1.03 ± 0.22 μg/well
- Collagen production (μg/well), AA-2G free ([5]; QA 1.0 μM): 0.71 ± 0.10 μg/well
- Collagen production (μg/well), AA-2G addition ([5]; QA 2.0 μM): 0.58 ± 0.06 μg/well
- Collagen production (μg/well), AA-2G free ([5]; QA 2.0 μM): 0.70 ± 0.16 μg/well
- Cell survival rate (%), AA-2G free ([6]; QA 0.125 μM): 101%
- Cell survival rate (%), AA-2G addition ([6]; QA 0.125 μM): 100%
- Cell survival rate (%), AA-2G free ([6]; QA 0.25 μM): 103%
- Cell survival rate (%), AA-2G addition ([6]; QA 0.25 μM): 100%
- Cell survival rate (%), AA-2G free ([6]; QA 0.5 μM): 99%
- Cell survival rate (%), AA-2G addition ([6]; QA 0.5 μM): 92%
- Cell survival rate (%), AA-2G free ([6]; QA 1.0 μM): 92%
- Cell survival rate (%), AA-2G addition ([6]; QA 1.0 μM): 79%
- Cell survival rate (%), AA-2G free ([6]; QA 2.0 μM): 88%
- Cell survival rate (%), AA-2G addition ([6]; QA 2.0 μM): 73%
